Values joined by “and” are separate entries in the source; they are usually repeats but may differ in a detail not shown here. Identical values can stand only once. Counter-ions that a name gives are not always drawn.
Tests used:
hair cells [1] = test: Neomycin Hair Cell Toxicity Assay in Zebrafish; assay type: in vivo
Protocol: Zebrafish are bred and newly fertilized embryos are collected the week prior and raised at 28.5° C. in petri dishes containing embryo medium. Newly hatched free-swimming larvae are fed paramecium and dry fish food at 4 days post fertilization (dpf) with lights on. For treatment, fish 5-7 dpf are transferred to cell culture baskets and place within a well of a 6-well plate containing 7 milliliters of 1× embryo medium. Typically, tests are done with ten fish per basket but work well with up to 50 fish. All treatment and wash volumes are 7 milliliters.
1. Fish are pre-treated with test compound for 1 hour. Concentrations between 0.010 to 25 micromolar of test compound are tested.
2. Treat with 200 micromolar neomycin (neomycin sulfate, Sigma, St. Louis, Mo., catalog #N1142)+ test compound for 30 minutes.
3. […]
5. […] The DASPEI staining of ten neuromasts (SO1, SO2, IO1, IO2, IO3, IO4, M2, MI1, MI2 and O2) on one side of an animal are evaluated. Each neuromast is scored for presence of DASPEI staining (score=2), reduced DASPEI staining (score=1) or absence of DASPEI staining (score=0). […] Average scores and standard deviations are calculated for animals in each treatment group. Scores are normalized to control group (vehicle only, no drug, no neomycin) and expressed as % hair cell survival. […] If less than 50% hair cells survive, the HC50 is not determined. […]

hair cells [2] = test: Cisplatin Hair Cell Toxicity Assay in Zebrafish; assay type: in vivo; details: cisplatin 50 μM for 24 hrs
Protocol: Zebrafish are bred and newly fertilized embryos are collected the week prior and raised at 28.5° C. in petri dishes containing embryo medium. Newly hatched free-swimming larvae are fed paramecium and dry fish food at 4 days post fertilization (dpf) with lights on. For treatment, fish 5-7 dpf are transferred to cell culture baskets and place within a well of a 6-well plate containing 7 milliliters of 1× embryo medium. Typically, tests are done with ten fish per basket but work well with up to 50 fish. All treatment and wash volumes are 7 milliliters. • 1. In a 48-well plate, place 10-12 fish/well in 300 μl of EM. • 2. Add ORC-13661 and vehicle control to each well at concentrations listed below. Swirl and place in incubator for 15 min. ORC-13661 concentrations tested: 0.103 μM, 0.308 μM, 0.925 μM, 2.78 μM, 8.33 μM. • 3. Add cisplatin 50 μM to pretreated and control wells. Swirl and place in incubator for 24 hrs. • 4. Place 1-2 drops of MS222 in each well to anesthetize fish, then aspirate treated EM. • 5. Add 300 μl/well of 4% paraformaldehyde to fix fish. Fix overnight at 4° C. or 2 hrs at room temperature (RT). • 6. Rinse wells with PBS for 15 min each 3 times. • 7. Add 300 μl/well of blocking solution for 1 hr at RT. • 8. Incubate with 300 μl/well of 1:400 mouse anti-Parvalbumin antibody overnight at 4° C. • 9. Rinse wells with PBS-T for 15 min each 3 times. • 10. […]

rats = test: Auditory Brainstem Response (ABR) Assay; assay type: in vivo; details: Day 24 vs Day 0, FIG. 2
Protocol: Chronic treatment of rats with aminoglycosides (AGs) such as kanamycin or amikacin results in an elevation of ABR thresholds, typically most pronounced at higher frequencies. For rats, hearing is tested at a range of frequencies to determine the intensity of sound (measured in decibels) necessary to evoke a response. As hearing loss becomes more severe, a higher intensity is needed to evoke a response. Each rat serves as its own control; hearing thresholds are determined at each frequency prior to any treatment and then at 2 weeks after a 10-day course of AG treatment (or control drug exposures).
The ABR assay measures short latency field potentials recorded from the scalp of animals that were sedated or noninvasively immobilized. […] For each animal, hearing thresholds, wave 1 latencies and input-output functions for stimulus frequencies at 2, 4, 8, 16 and 32 kHz were measured prior to any treatment to determine the initial sensitivity and dynamic range of hearing, and then repeated at the end of drug treatment and at the end of the experiment (2-weeks after dosing). […]
ABR records were evaluated by a “blinded”, trained experimenter. Hearing loss (Threshold Shift) was determined by subtracting the threshold during pre-treatment (Day 0) from the final ABR threshold (Day 24; two weeks following treatment). […]

kidney = test: Effect of Amikacin and Compound 9 on Kidney Function; assay type: in vivo, Fischer 344 rats; details: for creatinine clearance (CrCl) post-treatment compared to pretreatment: FIG. 3; for kidney histopathology damage score (0-4): FIG. 4
Protocol: The study consisted of three groups of Fischer 344 rats aged 6 weeks and weighing approximately 200 g at the start of the study. Group 1 consisted of six rats, randomly selected to receive amikacin only, Group 2 consisted of six rats chosen randomly to receive amikacin and compound 9, and Group 3 consisted of three rats, 2 rats given compound 9 and 1 rat given only 0.5% Methylcellulose, the diluent for compound 9. All animals receiving amikacin were given 320 mg/kg subcutaneously (SQ) from a freshly prepared solution of amikacin of 40 mg/mL. The compound 9 formualtion was prepared by weighing 13.08 mg of compound 9 dissolved in 12 mL of 0.5% MC in saline with vortexing, sonification and homogenization to obtain a solution with concentration at 12 mg/12 mL=1 mg/mL, dose volume is 5 mL/kg (5 mg/kg). The compound 9 solution was given by oral gavage at a dose of 5 mg/kg.
One day prior to the onset of dosing, blood was drawn from all rats for serum analysis and all rats were put into metabolic cages for 24 hour urine collection and analysis. All rats were returned to normal cages and allowed to eat and drink ad lib. All rats received their assigned treatments for 10 days and then were returned to metabolic cages for the 10th day. Three rats were randomly chosen from each of Group 1 and Group 2 to have additional blood draws at 30 min, 60 mn, 2 hr, 4 hr, 8 hr and 24 hr after the 10th dose for amikacin and compound 9 PK analysis. All rats had blood drawn for serum analysis at the end of day 10 and the 24 hour urine collected from day 10. After the final blood draw, all rats were euthanized and their kidneys removed and prepared for histopathology testing. The left kidneys were longitudinally sectioned, the right kidneys were cross sectioned. The pathologist read the slides, blinded to the group from which they were assigned. They graded viewed five different locations on each slide and gave each location a score for degree of damage: no damage (0 score); minimal (1-10%, 1 score), mild (11-20%, 2 score), moderate (21-50%, 3 score), or marked (51-100%, 4 score).
Previous studies have shown that aminoglycoside renal toxicity primarily affects the proximal and distal tubules of the kidney, eventually causing […] of the epithelial cells. The resulting damage causes, in part, decreased glomerular filtration rate (GFR) which may be a result of the tubular damage or partly through other mechanisms. The GFR was approximated using the creatinine clearance. […] The one-sided two-sample t-test p-value for the comparison of the amikacin only (Group 1) and amikacin+compound 9 (Group 2) are shown in a box between the two columns.

Hearing loss (ABR Threshold Shift) (rats; Amikacin alone SC 320 mg/kg/day for 10 days) | creatinine clearance (CrCl) post-treatment compared to pretreatment (kidney; Group 1: amikacin only 320 mg/kg SQ for 10 days) | Compound | EC50 (hair cells [1]; Danio rerio, concentration that would produce 50% hair cell survival, 1 hour pre-treatment, then 200 micromolar neomycin + test compound for 30 minutes, read-out: HC50 (the source's name)) | Max HC Protection (hair cells [1]; at 2.6 μM, 200 micromolar neomycin, % hair cell survival normalized to control) | EC50 (hair cells [2]; Danio rerio, 15 min pretreatment, read-out: HC50 (the source's name)) | Max HC Protection (hair cells [2]; at 8.33 μM, hair cell counts as % control) | Hearing loss (ABR Threshold Shift), high frequency (rats; Amikacin SC 320 mg/kg/day + Compound 9 PO 5 mg/kg/day for 10 days) | creatinine clearance (CrCl) post-treatment compared to pretreatment (kidney; Group 2: amikacin 320 mg/kg SQ + compound 9 5 mg/kg oral gavage for 10 days) | kidney histopathology damage score (0-4) (kidney; amikacin + compound 9 treated rats, longitudinal and cross sectioning (values not assigned to section in text), vs amikacin only p<0.005, hydrochloride) | kidney histopathology damage score (0-4) (kidney; amikacin only rats, longitudinal and cross sectioning of the kidney)
– | – | CN1[C@H]2CC[C@@H]1c1c(sc(NC(=O)Nc3ccc(Cl)cc3)c1C(N)=O)C2 [Compound 9, (4R,7S)-2-(3-(4-chlorophenyl)ureido)-9-methyl-5,6,7,8-tetrahydro-4H-4,7-epiminocyclohepta[b]thiophene-3-carboxamide hydrochloride] | < 1 µM | 96% protection at 2.6 μM | < 1 µM | 90% protection at 8.33 μM | robust protection | significantly different from baseline | 3.6 and 3.1 | –
hearing loss | significantly different from baseline | NCC[C@H](O)C(=O)N[C@@H]1C[C@H](N)[C@@H](O[C@H]2O[C@H](CN)[C@@H](O)[C@H](O)[C@H]2O)[C@H](O)[C@H]1O[C@H]1O[C@H](CO)[C@@H](O)[C@H](N)[C@H]1O [amikacin, reference compound] | – | – | – | – | – | – | – | 3.9

Reference: patent publication US10399994B2, “Compounds and methods for preventing or treating sensory hair cell death” (UNIVERSITY OF WASHINGTON, priority 2015, dated 2019)
